Measured values from US20060052298A1, “Use of stable glutamine derivatives to improve drug absorption” (priority 2002, published 2006).
Like-named read-outs stand apart in the source and are kept apart here. Peptide text beside a SMILES is read from it.

Key:
[1] = 2-hour (peak) antiretroviral drug levels in blood; settings: for number of patients whose AZT levels did not improve (of eight): 14 patients taking AZT; for number of patients who did not increase their D4T levels / number of patients with an increase in their D4T levels: 15 patients on D4T; for number of patients whose 3TC levels did not improve / number of patients whose 3TC levels improved with therapy: 18 patients on 3TC; for drug levels improved, all ARV drugs including NNRTI and PI / mean percent improvement in antiretroviral drug levels / peak paired NRTI levels improved: after 7 days of study drug; for concentration at 2 h: blood, po, mean 2-hour drug level, oral ARV therapy
Source text: HUV positive patients on therapy presenting at the Hospital Sao Jose with diarrhea (≧3 stools/day×14 days) and wasting (loss of ≧10% of their body weight) from March 2001 to April 2002, were invited to participate. After informed consent, patients were assigned to one of four equi-nitrogenous blinded study groups including glycine controls (FIG. 1). Group A received 46 gm of oral glycine/day (Spectrum, Gardena, Calif.). Group B received 30 gm of oral glutamine/day (Cambridge Neutraceuticals, Cambridge, Mass.) and 15 gm of glycine, Group C received 4 grams alanyl-glutamine (Degussa/Creanova, Parsippany, N.J.) and 42 gm of glycine and Group D received 44 gm of alanyl-glutamine (Ala-Gln). The 44 gm alanyl-glutamine dose was calculated to contain equimolar glutamine to 30 gm of glutamine, and glycine was added to glutamine and low dose alanyl-glutamine groups to equalize the amount of nitrogen received by all participants.
Antiretroviral drug levels were determined at Tibotec-Virco, Mechelen, Belgium. Peak values were determined for each drug, and drug level ranges supplied by the manufacturer were used to define low levels. Viral genotype was determined by DNA sequencing at Visible Genetics, Suwanee, Ga. […] Two-tailed statistical analyses for comparison of paired values included Student's t-test and ANOVA and expressed as […] the standard deviation. Chi-square test or Fisher Exact test were used to compare proportions.

[2] = tested on: HIV positive patients with diarrhea and wasting; assay: Clinical response by diarrhea frequency and consistency in AIDS patients with diarrhea and wasting; assay type: in vivo, human; settings: 7 days; high dose Ala-Gln 44 gm/day; glycine controls 46 gm/day
Source text: Patients were asked daily about the frequency and consistency of their diarrhea and other gastrointestinal complaints including anorexia, vomiting, and abdominal cramping. Changes in frequency of diarrhea was scored as 0 if the total number of stools in the second half of the 9-day study was less than 2 fewer (or greater) than the number in the first half of the study (including the 2 days before study treatment was started); scored as − or +1 if stool frequencies were reduced or increased by 2 to 3, respectively; and − or +2 if the frequencies were reduced or increased by >3, respectively. In addition, consistencies were graded as liquid, soft or formed and scored as 0, 1 or 2 respectively and changes were added to the frequency scores above. Intestinal permeability was measured by urinary excretion of lactulose, mannitol and their ratio as previously described (Lima et al., Am J Gastroenterol 1997; 92(10):1861-1866). Lactulose and mannitol in urine was determined by high performance liquid chromatography (HPLC) and at Great Smokies Diagnostic Laboratory, Asheville, N.C.

[3] = tested on: small intestinal epithelial crypt cells (line IEC-6); assay: IEC-6 cell migration after wounding (restitution model); assay type: cell-based; settings: IEC-6 cells, 2.5 mmol/liter
Source text: In 1992, McCormack et al. established a model to study the process of cell migration involved in the early restitution of mucosal erosion. […] This model system is used in the present invention in order to show the important effect of stable glutamine derivatives on intestinal epithelial restitution. To investigate the ability of glutamine and stabilized glutamine derivatives to enhance the healing of mucosal tissues, a model system based on the migration of small intestinal epithelial crypt cells (line IEC-6) was used. The small epithelial crypt cell line (IEC-6 cells) was obtained from the American Type Culture Collection (Rockville, Md.). The medium consisted of Dullbecco's modified Eagle medium (DMEM) with 5% heat-inactivated FBS and 10 μg insulin and 50 μg gentamicin sulfate per milliliter. For the experiments, the cells were taken up with 0.25% trypsin plus 2.65 mM EDTA and plated at 6.25×10^4 cell/cm^2 in 35 mm dishes thinly coated with Matrigel according to the manufacturer's instructions. The cells were fed every other day. To initiate migration, the cell layer was scratched with a single razor blade cut to approximately 27 mm in length. The scratch began at the diameter of the dish and extended over an area 7 to 10 mm wide. After the scratch, the cells were washed twice with sterile PBS. Then, medium containing no supplemental substances or medium containing glutamine or alanyl-glutamine (2.5 mmol/liter) was replaced, and the dishes were returned to the incubator. The experiments were carried out in triplicate. After 6 hours, 8 hours, and 24 hours, the dishes were removed from the incubator, and photographed using an inverted phase contrast microscope attached with camera The migration cells in five contiguous 0.1-mm squares were counted at ×100 magnification beginning at the scratch line and extending as far out as the cells had migrated. The counting was done in the area of the highest migration rate by means of an eyepiece reticle.

[4] = tested on: salt and water absorption; settings: compared with glucose; cited from earlier work
[5] = compared with glutamine; cited from earlier work
intestinal permeability = settings: over 28 days, cited from earlier work
[6] = high dose Ala-Gln, control group
[7] = high dose Ala-Gln, Gln, glycine
[8] = high dose Ala-Gln 44 gm/day, Gln 30 gm/day (+15 gm glycine), glycine 46 gm/day
[9] = high dose Ala-Gln 44 gm/day, Gln 30 gm/day (+15 gm glycine), glycine controls 46 gm/day
[10] = human, controls without diarrhea or wasting
[11] = human, study patients with diarrhea and wasting
[12] = study patients with diarrhea and wasting
[13] = low dose Ala-Gln 4 grams/day (+42 gm glycine)
[14] = all study groups together, 18 on 3TC, 15 on D4T, 14 on AZT

NCC(=O)O [glycine, reference compound]
number of patients whose AZT levels did not improve (of eight) [1, 6]: half
number of patients who did not increase their D4T levels [1, 7]: 2
number of patients whose 3TC levels did not improve [1, 7]: 3
number of patients whose 3TC levels improved with therapy [1, 7]: 2
drug levels improved, all ARV drugs including NNRTI and PI [1, 8]: 20%
mean percent improvement in antiretroviral drug levels [1, 9]: −32%
peak paired NRTI levels improved [1, 9]: 15.4%
patients improved (diarrhea frequency and consistency) [2]: 38%

O=c1[nH]cnc2c1ncn2[C@H]1CC[C@@H](CO)O1 [ddI, didanosine, reference compound]
concentration at 2 h [1, 10]: 737 ± 226 ng/mL
concentration at 2 h [1, 11]: 397 ± 151 ng/mL
patients with drug levels below the expected range, in words [1, 12]: All

O=C1Nc2ccc(Cl)cc2[C@@](C#CC2CC2)(C(F)(F)F)O1 [efavirenz, reference compound]
patients with drug levels below the expected range (low drug levels) [1, 12]: 85%

C[C@H](N)C(=O)N[C@@H](CCC(N)=O)C(=O)O [Ala-Gln, alanyl-glutamine] (H-Ala-Gln-OH)
number of patients whose AZT levels did not improve (of eight) [1, 6]: 1
number of patients whose AZT levels did not improve (of eight) ([1]; low dose Ala-Gln): 3
number of patients with an increase in their D4T levels ([1]; high dose Ala-Gln): 3
number of patients who did not increase their D4T levels [1, 7]: 1
number of patients who did not increase their D4T levels ([1]; low dose Ala-Gln): 2
number of patients with an increase in their D4T levels ([1]; low dose Ala-Gln): 3
number of patients whose 3TC levels did not improve [1, 7]: none
number of patients whose 3TC levels improved with therapy [1, 7]: 2
number of patients whose 3TC levels did not improve ([1]; low dose Ala-Gln): 3
number of patients whose 3TC levels improved with therapy ([1]; low dose Ala-Gln): 4
drug levels improved, all ARV drugs including NNRTI and PI [1, 8]: 63%
mean percent improvement in antiretroviral drug levels [1, 9]: 113%
peak paired NRTI levels improved [1, 9]: 75%
drug levels improved, all ARV drugs including NNRTI and PI [1, 13]: 50%
mean percent improvement in antiretroviral drug levels [1, 13]: 8%
peak paired NRTI levels improved [1, 13]: 55%
cell migration compared to control ([3]; 6 hours, 8 hours, and 24 hours after the scratch): significantly enhanced cell migration
cell migration increase related to control ([3]; 8 hours after the scratch): 107%
cell migration increase related to control ([3]; 24 hours after the scratch): 173%
enhancement of cell migration, more than glutamine ([3]; after 6 hours): 46%
enhancement of cell migration, more than glutamine ([3]; after 8 hours): 55%
patients improved (diarrhea frequency and consistency) [2]: 89%
drive of salt and water absorption [4]: comparable to, if not better, than glucose
stability in acidic water solutions [5]: much more stable

Nc1ccn([C@@H]2CS[C@H](CO)O2)c(=O)n1 [3TC, lamivudine, reference compound]
number of patients whose level of this ARV drug improved with therapy [1, 14]: 10
concentration at 2 h [1, 10]: 2810 ng/mL
concentration at 2 h [1, 11]: 1500 ng/mL
patients with drug levels below the expected range, in words [1, 12]: All

Cc1c(O)cccc1C(=O)N[C@@H](CSc1ccccc1)[C@H](O)CN1C[C@H]2CCCC[C@H]2C[C@H]1C(=O)NC(C)(C)C [nelfinavir, reference compound]
patients with drug levels below the expected range (low drug levels) [1, 12]: 44%

CC(C)c1nc(CN(C)C(=O)N[C@H](C(=O)N[C@@H](Cc2ccccc2)C[C@H](O)[C@H](Cc2ccccc2)NC(=O)OCc2cncs2)C(C)C)cs1 [ritonavir, reference compound]
patients with drug levels below the expected range, in words [1, 12]: All

Cc1cn([C@H]2C[C@H](N=[N+]=[N-])[C@@H](CO)O2)c(=O)[nH]c1=O [AZT, zidovudine, reference compound]
number of patients whose level of this ARV drug improved with therapy [1, 14]: six

CC(C)(C)NC(=O)[C@@H]1C[C@@H]2CCCC[C@@H]2CN1C[C@@H](O)[C@H](Cc1ccccc1)NC(=O)[C@H](CC(N)=O)NC(=O)c1ccc2ccccc2n1 [saquinavir, reference compound]
patients with drug levels below the expected range, in words ([1]; in vivo): All

Cc1cn([C@H]2C=C[C@@H](CO)O2)c(=O)[nH]c1=O [stavudine, reference compound]
patients with drug levels below the expected range (low drug levels) ([1]; human, in vivo, 2 h): 20%
number of patients whose level of this ARV drug improved with therapy ([1]; in vivo): seven

NC(=O)CC[C@H](N)C(=O)O [Gln, glutamine]
intestinal permeability (intestinal permeability; 4 g/day): less worsening
absorption of mannitol (intestinal permeability; 8 g/day): improved
intestinal permeability (intestinal permeability; 8 g/day): stabilization
number of patients who did not increase their D4T levels [1, 7]: 3
number of patients whose 3TC levels did not improve [1, 7]: 2
number of patients whose 3TC levels improved with therapy [1, 7]: 2
drug levels improved, all ARV drugs including NNRTI and PI [1, 8]: 57%
mean percent improvement in antiretroviral drug levels [1, 9]: 14%
peak paired NRTI levels improved [1, 9]: 64.3%
